From ChEMBL document CHEMBL1667778, “Naphthalene/quinoline amides and sulfonylureas as potent and selective antagonists of the EP4 receptor” (Bioorg Med Chem Lett, 2011)

Legend:
[1] = Elimination half life in Beagle dog at 1 mg/kg, iv and 4 mg/kg, po; format: ADME, organism-based, Canis lupus familiaris; details: in vivo
Liver = experiment: Drug level in Sprague-Dawley rat liver at 150 uCi/kg, po after 24 hrs; format: ADME, organism-based; details: in vivo
Hepatocyte [2] = experiment: Metabolic stability in human hepatocytes; format: ADME, cell-based
[3] = Bioavailability in Beagle dog at 1 mg/kg, iv and 4 mg/kg, po; format: ADME, organism-based, Canis lupus familiaris; details: in vivo
[4] = AUC (0 to 24 hrs) in Beagle dog at 4 mg/kg, po; format: ADME, organism-based, Canis lupus familiaris; design: time < 24 hr, dose 4 mg/kg, route oral; details: plasma
[5] = Clearance in Beagle dog at 1 mg/kg, iv and 4 mg/kg, po; format: ADME, organism-based, Canis lupus familiaris; details: in vivo
Plasma = experiment: Drug level in Sprague-Dawley rat plasma at 150 uCi/kg, po after 24 hrs; format: ADME, organism-based; details: in vivo
[6] = AUC (0 to 24 hrs) in Sprague-Dawley rat at 20 mg/kg, po; format: ADME, organism-based; design: time < 24 hr, dose 20 mg/kg, route oral; details: plasma
[7] = Elimination half life in Sprague-Dawley rat at 5 mg/kg, iv and 20 mg/kg, po; format: ADME, organism-based; details: in vivo
[8] = Metabolic stability in rat liver microsome; format: ADME; details: microsomes
[9] = Bioavailability in Sprague-Dawley rat at 5 mg/kg, iv and 20 mg/kg, po; format: ADME, organism-based; details: in vivo
[10] = Clearance in Sprague-Dawley rat at 5 mg/kg, iv and 20 mg/kg, po; format: ADME, organism-based; details: in vivo
Hepatocyte [11] = experiment: Metabolic stability in rat hepatocytes; format: ADME, cell-based
[12] = Metabolic stability in human liver microsome; format: ADME; details: microsomes

Compound: CCOc1c2c(c(OCC)c3ccccc13)C(=O)N(c1ccc(CC3(NC(=O)NS(=O)(=O)c4c(Cl)cccc4Cl)CC3)cc1C)C2
- half-life [1]: 4.3 h
- Drug uptake (Liver): < 10 pmol/mg
- Stability (Hepatocyte [2]): 96%
- bioavailability [3]: 100%
- AUC(0-t) at 24 h [4]: 101 µM·h
- clearance [5]: 1.2 mL/min/kg
- Drug uptake (Plasma): < 10 pmol/mg
- AUC(0-t) at 24 h [6]: 37.4 µM·h
- half-life [7]: 6.6 h
- Stability [8]: 97%
- bioavailability [9]: 84%
- clearance [10]: 11 mL/min/kg
- Stability (Hepatocyte [11]): 91%
- Stability [12]: 90%
